Results on three compounds are retold here after US20260293897A1, “COMPOUND CONTAINING FIVE-MEMBERED HETEROCYCLE, PREPARATION METHOD THEREFOR, AND APPLICATION THEREOF” (QINGDAO KANGQIAO PESTICIDES AND CHEMICALS GROUP CO., LTD., priority 2022, published 2026).

Format in all cases: in vivo
In data set [1] the test system is Sensitive Plutella xylostella. The data set can be described thus: Sensitive Plutella xylostella Controlling Activity Test. The text has this:
Sensitive Plutella xylostella Controlling Activity Test:
Test targets: Plutella xylostella, 3 rd instar larvae, a sensitive strain raised indoors.
The test method comprises the following steps: selecting fresh cabbage leaves cultivated in a greenhouse, making the cabbage leaves into round with the diameter of 3 cm by using a puncher, putting the circular blade into prepared liquid medicine to be soaked for 10 s according to the sequence from low dose to high dose of experimental design, naturally drying the cabbage leaves in the shade, putting the soaked cabbage leaves into a culture dish with filter paper and the diameter of 9 cm, inoculating regular healthy test insects, n=10, repeating the treatment for 3 times, and additionally setting blank control.

Another data set concerns Phyllotreta striolata. Kind of data set: Phyllotreta striolata Controlling Activity Test. The conditions noted are these: 72 h, read-out: mortality against Phyllotreta striolata. The procedure:
Phyllotreta striolata Controlling Activity Test:
Preparing liquid medicine according to the experimental design concentration, selecting fresh cabbage leaves, soaking the cabbage leaves for 15 s, taking out, airing, placing in a glass tube, connecting 20-25 heads of the Flea beetles adults with each tube, repeating the treatment for 3 times, investigating the death condition of the Phyllotreta striolata after 72 hours, and calculating and correcting the death rate.

The test system of the next data set is Spodoptera frugiperda. Kind of data set: Spodoptera frugiperda Indoor Toxicity Determination Test. The conditions noted are these: in Zea mays, read-out: mortality against Spodoptera frugiperda. The text has this:
Spodoptera frugiperda Indoor Toxicity Determination Test
Test targets: Spodoptera frugiperda, 3rd instar larvae, a sensitive strain raised indoors.
The test method comprises the following steps: firstly, selecting fresh corn leaves cultivated in a greenhouse, cutting the fresh corn leaves into 5 cm-long leaf segments, sequentially arranging the test design from low dose to high dose, soaking the fresh corn leaves in prepared liquid medicine for 10 s, naturally drying the fresh corn leaves in the shade, then placing the dried corn leaves in a culture dish with filter paper and the diameter of 9 cm, inoculating regular healthy test insects, n=10, repeating the treatment for 3 times, and additionally arranging blank control.

The next data set has as its system Tetranychus cinnabarinus. Kind of data set: Tetranychus cinnabarinus Controlling Activity Test. The conditions noted are these: 72 h; for mortality at 1.6 ppm: read-out: mortality against Tetranychus cinnabarinus; for mortality at 1.56 ppm / mortality at 3.125 ppm / mortality at 6.25 ppm / mortality at 12.5 ppm: in Phaseolus vulgaris. On the procedure: Tetranychus cinnabarinus Controlling Activity Test:
The test compound was dissolved in acetone and diluted to the desired concentration with 0.1 wt % aqueous tween 80, the acetone content not exceeding 5 wt %.
One real leaf was removed from kidney bean seedlings grown to two real leaves, inoculating Tetranychus cinnabarinus, investigating the base number, performing whole plant spraying treatment by using a handheld sprayer, repeating the treatment for 3 times (the application amount of the preparation is about 0.5 g), observing in a constant-temperature observation room after the treatment, investigating the number of live mites after 72 hours, and calculating the mortality. The number of Tetranychus cinnabarinus inoculated in each time is 35-100.
Mortality%=(number of inoculated insects−number of live insects after drug administration)÷number of inoculated insects×100%

Data set [2] has as its system Frankliniella occidentalis larvae. The data set can be described thus: Frankliniella occidentalis Larva Controlling Activity Test. The conditions noted are these: 72 h; for mortality at 3.25 ppm: read-out: mortality for Frankliniella occidentalis larvae; for mortality at 1.56 ppm / mortality at 3.125 ppm / mortality at 6.25 ppm: in Brassica oleracea. The procedure:
Frankliniella occidentalis Larva Controlling Activity Test:
The test compound is dissolved in acetone and diluted to the desired concentration. 0.5 mL of the prepared acetone medicinal liquid is added into a glass tube (the inner diameter is 1 cm, the length is 10 cm), and the glass tube is repeatedly rolled on a flat table until the acetone solution is completely volatilized. Soaking cabbage leaves in the liquid medicine with the corresponding concentration for 15 s, drying, placing in a glass tube, inoculating 10-20 heads of Frankliniella occidentalis larvae in the glass tube, repeating the treatment for three times, observing in a constant-temperature observation room after the treatment, investigating the number of live insects after 72 hours, and calculating the mortality.

The subject of data set [3] is Resistant Plutella xylostella. Kind of data set: Resistant Plutella xylostella Controlling Activity Test. The note with it: for Mortality (%): 0.2 ppm, 2nd instar, resistant, radish leaves dipped 10 s, 72 h (three days); for mortality at 0.2 ppm / mortality at 1 ppm / mortality at 5 ppm: Plutella xylostella, in Raphanus sativus, 72 h. The procedure: Resistant Plutella xylostella Controlling Activity Test:
Leaf dipping method was used, the appropriate amount of radish leaves were dipped into the drug for 10 s, placed in a plastic petri dish padded with filter paper and dried naturally, each dish was connected with 10 heads of 2nd instar small cabbage moths, placed in the observation room at 24° C. and light (16/8 h). 72 h later observation was made, and the body of the insect was touched lightly with a brush and no reaction was regarded as a dead insect, which was repeated for three times, and a blank control was also set up without any additional agent.

[4] abbreviates: read-out: mortality against Plutella xylostella.

Like-named read-outs stand apart in the source and are kept apart here.

What is called mortality is the percentage killed. On to `Cc1cc(C2=NOC(c3cc(Cl)c(F)c(Cl)c3)(C(F)(F)F)C2)ccc1C(=O)N[C@@H]1CCS(=O)(=O)C1` (stereo partly drawn) [Compound I-14, 4-(5-(3,5-dichloro-4-fluorophenyl)-5-(trifluoromethyl)-4,5-dihydroisoxazol-3-yl)-N—((R)-1,1-dioxotetrahydrothiophen-3-yl)-2-methylbenzamide], for which, in data set [1] (setting [4]), the mortality at 1 ppm is above 90%. In addition, the mortality at 50 ppm with Phyllotreta striolata was above 90%. The mortality at 1 ppm in the data set with Spodoptera frugiperda was above 90%. Moreover, in the data set with Tetranychus cinnabarinus, the mortality at 1.6 ppm was above 90%, the mortality at 1.56 ppm was 100%, the mortality at 3.125 ppm was 100% and the mortality at 6.25 ppm was found to be 100%. This compound also registered a mortality at 12.5 ppm with Tetranychus cinnabarinus of 100%. In addition, the mortality at 3.25 ppm in data set [2] was above 90%.

In data set [1] (in Brassica oleracea, 72 h), `Cc1cc(C2=NOC(c3cc(Cl)c(F)c(Cl)c3)(C(F)(F)F)C2)ccc1C(=O)NC1CCS(=O)(=O)C1.I` (stereo not drawn) [Compound I-1, 4-(5-(3,5-dichloro-4-fluorophenyl)-5-(trifluoromethyl)-4,5-dihydroisoxazol-3-yl)-N-(1,1-dioxotetrahydrothiophen-3-yl)-2-methylbenzamide] returned a mortality at 0.333 ppm of 80% and a mortality at 1 ppm of 100%. Further, the mortality at 1 ppm in data set [1] (setting [4]) is above 90%. Also, the mortality at 50 ppm in the data set with Phyllotreta striolata was above 90%. In addition, the mortality at 1 ppm in the data set with Spodoptera frugiperda was above 90%. Besides, in the data set on Tetranychus cinnabarinus, the mortality at 1.6 ppm is above 90%, the mortality at 1.56 ppm amounted to 94.3%, the mortality at 3.125 ppm was 100% and the mortality at 6.25 ppm was 100%. In addition, the mortality at 12.5 ppm in the data set on Tetranychus cinnabarinus is 100%. In addition, in data set [2], the mortality at 3.25 ppm is above 90%, the mortality at 1.56 ppm came to 100%, the mortality at 3.125 ppm was determined as 100% and the mortality at 6.25 ppm is 100%. Moreover, in data set [3], the “Mortality (%)” value was 100%, the mortality at 0.2 ppm was 100%, the mortality at 1 ppm is 100% and the mortality at 5 ppm was determined as 100%.

In data set [1] (in Brassica oleracea, 72 h), `Cc1cc(C2=NOC(c3cc(C(F)(F)F)cc(C(F)(F)F)c3)(C(F)(F)F)C2)ccc1C(=O)NC1CCS(=O)(=O)C1` (stereo not drawn) [Compound I-25, 4-(5-(3,5-bis(trifluoromethyl)phenyl)-5-(trifluoromethyl ester)-4,5-dihydroisoxazol-3-yl)-N-(1,1-dioxotetrahydrothiophen-3-yl)-2-methylbenzamide] gave a mortality at 0.333 ppm of 65% and a mortality at 1 ppm of 100%. In addition, in data set [1] (setting [4]), the mortality at 1 ppm was above 90%. The mortality at 50 ppm in the data set on Phyllotreta striolata is above 90%. For the same compound, the mortality at 1 ppm in the data set on Spodoptera frugiperda was above 90%. Also, in the data set with Tetranychus cinnabarinus, the mortality at 1.6 ppm was above 90%, the mortality at 1.56 ppm stood at 90.3%, the mortality at 3.125 ppm turned out to be 99.3% and the mortality at 6.25 ppm worked out at 100%. In the data set on Tetranychus cinnabarinus, the mortality at 12.5 ppm was 100%. In data set [2], the mortality at 3.25 ppm is above 90%, the mortality at 1.56 ppm was 100%, the mortality at 3.125 ppm stood at 100% and the mortality at 6.25 ppm was found to be 100%. In data set [3], the “Mortality (%)” value stood at 100%, the mortality at 0.2 ppm stood at 100%, the mortality at 1 ppm came out at 100% and the mortality at 5 ppm was determined as 100%.
